# Values of other authors in US8865644B2, “Rapamycin formulation using recombinant high-density lipoprotein including apolipoprotein A-I and a mutant thereof” (Industry-Academic Cooperation Foundation, Yeungnam …, priority 2010, dated 2014).
structure (smiles),measurement,value
CO[C@H]1C[C@@H]2CC[C@@H](C)[C@@](O)(O2)C(=O)C(=O)N2CCCC[C@H]2C(=O)O[C@H]([C@H](C)C[C@@H]2CC[C@@H](O)[C@H](OC)C2)CC(=O)[C@H](C)/C=C(\C)[C@@H](O)[C@@H](OC)C(=O)[C@H](C)C[C@H](C)/C=C/C=C/C=C/1C [rapamycin],"solubility in water, aliphatic hydrocarbon and diethylether",hardly dissolved
